Among the data in ChEMBL document CHEMBL5728999, “Sulfoximine glycosidase inhibitors” (2022) are IC50 values, retold here.

Where only a bound is given, the exact number is not on record here.

This experiment has as its target T1, Protein O-GlcNAcase (Homo sapiens, UniProt O60502).
T1 sequence (O60502 whole entry): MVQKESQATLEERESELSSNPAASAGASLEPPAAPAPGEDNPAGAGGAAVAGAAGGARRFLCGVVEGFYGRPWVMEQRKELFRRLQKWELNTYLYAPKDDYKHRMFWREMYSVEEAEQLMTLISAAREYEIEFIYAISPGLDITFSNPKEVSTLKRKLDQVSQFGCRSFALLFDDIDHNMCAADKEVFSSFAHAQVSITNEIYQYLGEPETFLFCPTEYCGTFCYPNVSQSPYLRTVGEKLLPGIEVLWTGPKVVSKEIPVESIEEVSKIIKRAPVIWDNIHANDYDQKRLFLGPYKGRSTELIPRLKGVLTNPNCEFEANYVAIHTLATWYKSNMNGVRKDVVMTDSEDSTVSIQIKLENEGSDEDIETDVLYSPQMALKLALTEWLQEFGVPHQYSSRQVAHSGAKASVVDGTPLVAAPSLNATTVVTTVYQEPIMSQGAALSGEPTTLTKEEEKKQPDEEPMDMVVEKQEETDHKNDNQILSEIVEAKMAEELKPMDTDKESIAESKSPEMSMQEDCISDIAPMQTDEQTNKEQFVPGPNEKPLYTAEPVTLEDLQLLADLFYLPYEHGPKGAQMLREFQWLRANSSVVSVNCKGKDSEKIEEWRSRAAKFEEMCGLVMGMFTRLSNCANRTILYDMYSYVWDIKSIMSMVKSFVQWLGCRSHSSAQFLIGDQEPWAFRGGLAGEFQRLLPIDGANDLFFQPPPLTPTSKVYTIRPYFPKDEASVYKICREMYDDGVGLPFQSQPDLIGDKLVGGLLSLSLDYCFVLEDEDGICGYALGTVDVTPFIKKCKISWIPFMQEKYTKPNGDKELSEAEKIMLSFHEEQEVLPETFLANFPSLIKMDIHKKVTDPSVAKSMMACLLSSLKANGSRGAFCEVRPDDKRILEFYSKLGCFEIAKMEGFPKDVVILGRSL
Put plainly: Human O-GlcNAcase enzyme inhibition assay: 5 μl of the appropriate concentration of a solution of inhibitor in McIlvaine's Buffer (pH 6.5) in 2% DMSO (for a dose response curve calculation) is added into each well of a 384-well plate (Greiner, 781900). Then, 20 nM of His-Tagged hOGA and 10 μM of FL-GlcNAc (Fluorescein mono-beta-D-(2-deoxy-2-N-acetyl) glucopyranoside; Marker Gene Technologies Inc, M1485) were added to the 384-well plate for a final volume of 20 μl. After incubation for 60 min at room temperature, the reaction was terminated by the addition of 10 μL of stop buffer (200 mM glycine, pH 10.75).

Turning to `CC(c1ccc2c(c1)OCC2)N1CCN(c2ncnc3c2CS(=N)(=O)C3)CC1` (stereo unspecified), the IC50 (commonly the concentration that inhibits the measured activity by half) was less than 50 nM.
